{"source": "patent EP0808626A1", "about": "“Use of acetyl-L-carnitine for the treatment of presenile Alzheimer's disease” (Sigma-Tau Industrie Farmaceutiche Riunite S.p.A., priority 1996, dated 1997)", "key": {"[1]": {"conditions": "stated to justify doses larger than 1 to 4 g/day; cited from earlier work"}, "early-onset AD patients": {"tested_on": "early-onset AD patients", "assay": "Double-blind, randomized, placebo-controlled trials with cognitive and functional clinical rating scales", "type": "in vivo", "conditions": "\"efficacy\" population", "description": "For the purposes of assessing the clinical efficacy of acetyl L-carnitine in early-onset AD patients. 8 different parallel-group, double-blind, randomized, placebo-controlled trials in which acetyl L-carnitine was administered chronically by mouth to subjects suffering from early-onset (before age 65) or late-onset (after age 65) Alzheimer's disease were pooled and assessed as a whole.\nAcetyl L-carnitine or placebo were administered at doses ranging from 2 to 3 g/day in the different studies. All patients recruited into these trials had diagnoses of probable Alzheimer's disease according to the criteria laid down by the DSM-III-R and the NINCDS-ADRDA; for recruitment patients had to have a Hachinski Ischemic Score of 4 points or less and no CT or NMR findings indicative of cerebral lesions other than those typical of Alzheimer's disease.\nA total of 834 patients were recruited into the 8 trials considered. Of these, 140 (16.8%) were suffering from early-onset AD (before 65 years of age according to the DSM-IV definition). The criterion adopted to identity these patients as early-onset was their actual age at the time of recruitment into the study.\nIn the 8 trials considered, the progression of Alzheimer's disease was assessed on the basis of cognitive clinical rating scales (cognitive section of the Alzheimer's Disease Assessment Scale [ADAS-Cog]; MMSE - Mini Mental State Examination; BIMC - Blessed Information Memory Concentration) and functional or global clinical scales (CDR - Clinical Dementia Rating Scale; BDS - Blessed Dementia Scale; CGI-S and -C - Clinical Global Impression of Severity and Change) according to the scientific criteria indicated and approved by the various international regulatory authorities."}, "[2]": {"conditions": "study ST-901, Functional, oral 3 g/day, 12 months"}, "[3]": {"conditions": "study ST-88102, Cognitive, oral 2-3 g/day, 44 weeks"}, "[4]": {"conditions": "study ST-88102, Functional, oral 2-3 g/day, 44 weeks"}, "[5]": {"conditions": "the 5 studies of 6 months, Functional, oral"}}}
{"molecule": "CC(=O)O[C@H](CC(=O)[O-])C[N+](C)(C)C", "note": "[Acetyl L-carnitine, acetyl L-carnitine]", "values": [{"measurement": "toxicity", "setting": "[1]", "result": "substantial non-toxicity"}, {"measurement": "BIMC, mean change in final value at 6-12 months compared to baseline", "setting": "early-onset AD patients; study DRN2-006, Cognitive, oral 2 g/day, 12 months", "result": -3.5}, {"measurement": "BDS, mean change in final value at 6-12 months compared to baseline", "setting": "early-onset AD patients; study DRN2-006, Functional, oral 2 g/day, 12 months", "result": 0.4}, {"measurement": "CDR, mean change in final value at 6-12 months compared to baseline", "setting": "early-onset AD patients; [2]", "result": 1.9}, {"measurement": "CGI-C, mean change in final value at 6-12 months compared to baseline", "setting": "early-onset AD patients; [2]", "result": 4.5}, {"measurement": "CGI-S, mean change in final value at 6-12 months compared to baseline", "setting": "early-onset AD patients; [2]", "result": 0.3}, {"measurement": "ADAS-Cog, mean change in final value at 6-12 months compared to baseline", "setting": "early-onset AD patients; [3]", "result": 4.7}, {"measurement": "MMSE, mean change in final value at 6-12 months compared to baseline", "setting": "early-onset AD patients; [3]", "result": -2.1}, {"measurement": "BDS, mean change in final value at 6-12 months compared to baseline", "setting": "early-onset AD patients; [4]", "result": 1.2}, {"measurement": "CGI-C, mean change in final value at 6-12 months compared to baseline", "setting": "early-onset AD patients; [4]", "result": 4.4}, {"measurement": "CGI-S, mean change in final value at 6-12 months compared to baseline", "setting": "early-onset AD patients; [4]", "result": 0.0}, {"measurement": "MMSE, mean change in final value at 6-12 months compared to baseline", "setting": "early-onset AD patients; the 5 studies of 6 months, Cognitive, oral", "result": -0.7}, {"measurement": "CGI-C, mean change in final value at 6-12 months compared to baseline", "setting": "early-onset AD patients; [5]", "result": 4.3}, {"measurement": "CGI-S, mean change in final value at 6-12 months compared to baseline", "setting": "early-onset AD patients; [5]", "result": 0.2}]}
